Each structure is given as a SMILES string. “And” between values parts separate entries of the source, which are not always exact repeats. Identical values can stand only once.

The text below walks through data of patent US20190211317A1, “PEPTIDES AND NANOPARTICLES FOR INTRACELLULAR DELIVERY OF GENOME-EDITING MOLECULES” (Aadigen, LLC, priority 2016, published 2019).

A short description of data set [1]: CPP/CAS9 and CPP/CAS9:gRNA particle size, polydispersity, zeta potential (Zetasizer 4). Type of data set: physicochemical.
Description: The CPP/CAS9 and CPP/CAS9/sgRNA particles were further characterized; the mean size, polydispersity and zeta potential were measured with Zetasizer 4 apparatus (Malvern Ltd). […] The mean size and the polydispersity of the CCP/CAS9 and CCP/CAS9:gRNA complexes were determined at 25° C. for 3 min per measurement and zeta potential was measured with Zetasizer 4 apparatus (Malvern Ltd).
For data set [2], the system named is hPD1 gene in human T cells. The experiment in a line: Simultaneous delivery of CAR plasmid and CAS9/gRNA: hPD1 editing (T7E1). Type of data set: cell-based. Conditions: for mean indel frequency: two donors.
Description: Cells were incubated for 5 min, then 300 μl of serum free RPMI-1640 medium was added. After 30 min, 1.2 mL of full medium was added and serum level was adjusted to 10%. As control, CAS9 loaded with gRNA targeting GFP was used. For comparison with electroporation methods, cells were transfected with the anti-CD-19 CAR plasmid (5 μg) and gRNA/CAS9 (5 μg/10 μg) using Nucleofector 2b (Lonza, Germany) with the Amaxa Human T cells Nucleofector Kit, VPA-1002 (Lonza, Germany).
On day 5, the level of transduced and untransduced cells was analyzed, and cells were transferred to fresh T cell expansion medium. The cultures were analyzed for viability and anti-CD19 CAR expression by flow cytometry. The expression of the anti-CD19 CAR in the T cells was evaluated by flow cytometry using a Protein L assay. […] 7-AAD (Sigma) was used to determine viability. CAS9-induced double-strand break followed by repair through NHEJ system was analyzed by either the T7E1 assay or using the Genome Cleavage Detection kit (GCD Thermo Fisher) and quantified using Fragment Analyzer System. The indel frequency in the target gene was quantified using the T7E1 assay. The cultures were expanded and analyzed for viability, anti-CD19 expression and PD I level every 10 days. T cell expansion medium contained AIM V medium, supplemented with 5% heat-inactivated human AB Serum, 1% Gluta-Max, and 300 IU/mL IL-2.
A further data set relates to JURKAT and K562 cells. The data set can be described thus: Toxicity of CPP/CAS9/gRNA complexes in T cell lines (MTT assay). Type of data set: cell-based, human. Conditions: up to 100 nM, 24 h. The method, then:
A total of 30,000 JURKAT or K562 cells seeded in 24-well plates the day prior to transfection were incubated with increasing concentrations of CPP/CAS9/gRNA complexed at 20:1 molar ratio (CPP to CAS9/gRNA) ranging from 1 nM to 200 nM for 30 min prior to addition of medium to reach a final 10% concentration of FCS. Cytotoxic response was measured 24 hours later by colorimetric MTT assay (Sigma, Germany). For MTT assay, cell culture medium was removed and replaced with PBS containing 2.5 mg/ml of MTT for 4 hours. Results correspond to the average of 3 independent experiments.
A general note: Tetrazolium dyes change colour on reduction, which living cells bring about.

Take `CC(C)C[C@H](NC(=O)[C@H](CCCNC(=N)N)NC(=O)[C@H](Cc1c[nH]c2ccccc12)NC(=O)[C@H](CCCNC(=N)N)NC(=O)[C@H](Cc1c[nH]c2ccccc12)NC(=O)CNC(=O)[C@H](C)NC(=O)[C@H](CO)NC(=O)[C@H](CCCNC(=N)N)NC(=O)[C@H](Cc1c[nH]c2ccccc12)NC(=O)[C@H](CCCCN)NC(=O)CCN)C(=O)N[C@@H](Cc1c[nH]c2ccccc12)C(=O)N[C@@H](CCCNC(=N)N)C(=O)N[C@H](C(=O)N[C@@H](CCCNC(=N)N)C(=O)N[C@@H](CO)C(=O)N[C@@H](Cc1c[nH]c2ccccc12)C(=O)N[C@@H](CO)C(=O)N[C@@H](CCCNC(=N)N)C(=O)O)C(C)C` [ADGN-100a]: the PI in data set [1] (Cas9:gRNA, molar ratio 10/1) is 0.27 ± 0.1; in data set [1] (Cas9:gRNA, molar ratio 20/1) it was 0.28 ± 0.1. Moreover, the Size in data set [1] (Cas9:gRNA, molar ratio 10/1) amounted to 91 ± 5 nm; in data set [1] (Cas9:gRNA, molar ratio 20/1) it was 87 ± 6 nm; in data set [1] (Cas9, molar ratio 10/1, 0.9% NaCl) it was 82 ± 5 nm; in data set [1] (Cas9, molar ratio 20/1) it was 78 ± 7 nm. Besides, the zeta in data set [1] (Cas9:gRNA, molar ratio 10/1) was 5.3±1.0 MV and 5.3 ± 0.7 MV; in data set [1] (Cas9:gRNA, molar ratio 20/1) it was 4.8±0.3 MV; in data set [1] (Cas9, molar ratio 10/1), 6.0±0.8 mV; in data set [1] (Cas9, molar ratio 20/1), 7.2±1 mV. Also, the Pt came out at 0.25 ± 0.1 in data set [1] (Cas9, molar ratio 10/1) and 0.21 ± 0.1 in data set [1] (Cas9, molar ratio 20/1). In addition, in data set [1] (with CAS9 and CAS9:gRNA complex, molar ratio 10:1 or 20:1), the “formation of stable nanoparticles” value is on record as “able to form stable nanoparticles”. Also, the Mean diameter in data set [1] (with CAS9 and CAS9:gRNA, molar ratio 10:1 or 20:1) is listed as roughly 80 nm. Moreover, the “Mean indel Frequency ± s.e.m” value worked out at 44 ± 5% in data set [2] (Donor 1, CAS9/sgRNA 2.5 μg/5 μg); 50 ± 3% in data set [2] (Donor 1, CAS9/sgRNA 5 μg/10 μg); 42 ± 3% in data set [2] (Donor 2, CAS9/sgRNA 2.5 μg/5 μg); 51 ± 8% in data set [2] (Donor 2, CAS9/sgRNA 5 μg/10 μg). The mean indel frequency result is listed as “approximately 42%” in data set [2] (2.5 μg/5 μg CAS9/gRNA) and “approximately 50%” in data set [2] (5 μg/10 μg CAS9/gRNA). Besides, in the data set on JURKAT and K562 cells, the toxicity entry was “no toxicity”.
